From PubChem BioAssay AID1508591

settings: rat; liver microsomes; pH 7.4; 15.0 min; 1.0 µM

| SMILES | half-life [min] |
| --- | --- |
| NC(=O)C1CCN(c2nc(-c3ccc(Oc4ccccc4)cc3)cs2)CC1 | 18.5 |
| CC(C)C(=O)Nc1cccc(NC(=O)c2cc3ccccc3o2)c1 | 28 |
| COc1ccc2c(c1)CN(C(=O)CCN1CCC(Cc3ccccc3)CC1)CCS2 | 2.27 |
| Cc1cccc(N(C)c2nc3ccccc3c3nnc(C)n23)c1 | 1.57 |
| COc1cc2c(cc1-c1c(C)noc1C)ncc1[nH]c(=O)n([C@H](C)c3ccccn3)c12 | > 30 |
| O=c1cc(CSc2ccc(Cl)cc2)nc(-c2ccccn2)[nH]1 | 1.52 |
| CNC1CCC(N(Cc2ccc(OC)c(-c3ccc(C#N)cc3)c2)C(=O)c2sc3ccccc3c2Cl)CC1 (stereo unspecified) | > 30 |
| O=C(NCc1cccc(C(F)(F)F)c1)c1ccc(CN2CCCCC2)cc1 | 15 |
| CSc1ccc(C(=O)c2[nH]c(=O)[nH]c2C)cc1 | > 30 |
| Cc1cc(-c2nnc3n2CCCCC3)c(C)n1-c1ccc(F)cc1 | 3.2 |
| O=C1CCCC2=C1C(c1ccccc1Cl)N=C(Nc1nc3ccccc3o1)N2 (stereo unspecified) | 9.38 |
| Cc1cc(Nc2ccc(Br)c(C)c2)n2nc(C)nc2n1 | 6.7 |
| COc1ccc(-c2nc(NC(C)c3ccccc3)c3ccccc3n2)cc1 (stereo unspecified) | 20.3 |
| C=C1c2cccc(O)c2C(O)=C2C(=O)[C@]3(O)C(O)=C(C(N)=O)C(=O)[C@@H](N(C)C)[C@@H]3[C@@H](O)[C@H]12 | > 30 |
| NC(=O)c1ccc(-c2ncc3cnc(-c4cccc(F)c4)cn23)cc1 | 20.7 |
| COc1cccc(CNc2ccc(S(=O)(=O)Nc3ccccc3)cc2)c1O | 6.7 |
| Fc1ccc(Oc2nc(-c3ccncc3)nc3ccccc23)cc1F | 15 |
| CCOC(=O)C1CCN(C(=O)C(C)(C)NC(=O)Nc2ccc(Cl)cc2Cl)CC1 | 1.36 |
| CCN(CC)C(=O)c1coc(COc2ccc3c(c2)C(c2cccc(F)c2)N(C(=O)C(C)C)CC3)n1 (stereo unspecified) | 1.28 |
| NC(=O)C1CCN(c2ncc(-c3ccc4c(c3)OC(F)(F)O4)s2)CC1 | 9.4 |
| CC(=O)C1CCN(c2ncc(-c3cccc(N(C)C)c3)s2)CC1 | 2.51 |
| CCCCN1CCC[C@H]1CNC(=O)c1cc(C#N)c2ccccc2c1OC | 4.23 |
| COc1ccc(N(C)C(=O)c2cc3c(s2)-c2ccccc2OC3)cc1 | 7.6 |
| OCc1ccc(-c2ccc(-c3ccc(CO)s3)o2)s1 | 6.18 |
| CNc1nc2c(s1)C(c1ccccc1F)CC(=O)N2 (stereo unspecified) | 3.51 |
| Fc1ccccc1-c1ccc(Nc2nc(-c3ccncc3)nc3ccccc23)cc1F | > 30 |

| SMILES | half-life [min] |
| --- | --- |
| CN([C@@H](Cc1ccc(OS(=O)(=O)c2cccc3cnccc23)cc1)C(=O)N1CCN(c2ccccc2)CC1)S(=O)(=O)c1cccc2cnccc12 | 1 |
| Fc1cccc(Nc2nc(-c3ccncc3)nc3ccccc23)c1F | 11 |
| Fc1ccc(Nc2nc(-c3ccccc3)cc(-c3ccncc3)n2)cc1F | > 30 |
| c1ccc(C2=Nn3c(nnc3-c3ccncc3)SC2)cc1 | 9.1 |
| Cn1cnc2c(F)c(Nc3ccc(Br)cc3Cl)c(C(=O)NOCCO)cc21 | > 30 |
| O=C(Nc1ccc2c(N3CCOCC3)ncnc2c1)c1cccc(Br)c1 | 10.1 |
| CCOP(=O)(Cc1ccc(C(=O)Nc2ccc(Br)cc2C#N)cc1)OCC | > 30 |
| Cc1ccc(S(=O)(=O)Nc2cccc(C(=O)Nc3nc(-c4ccc(Cl)cc4)cs3)c2)cc1 | 23 |
| Clc1ccc(-c2nc(-c3ccc(Br)o3)no2)c(Cl)c1 | 13 |
| O=C1Nc2ccccc2/C1=C\c1ccc([N+](=O)[O-])cc1 | 4.92 |
| O=C1CCc2cc(S(=O)(=O)Nc3ccc(F)c(Cl)c3)ccc2N1 | 20.5 |
| CCOC(=O)N1CCN(Cc2nc3cc(NC(=O)CC(C)C)ccc3n2C(C)C)CC1 | > 30 |
| Cc1ccc(S(=O)(=O)c2cnc(SC(C)C(=O)Nc3ccccc3)[nH]c2=O)cc1 (stereo unspecified) | 10.7 |
| O=C(Cn1c2ncccc2c(=O)n1-c1ccccc1)Nc1ccc(Cl)cc1C(F)(F)F | 4.81 |
| Cc1cc(N2CCN(c3ccccc3)CC2)nc(-n2nc(C)cc2C)n1 | > 30 |
| CCOc1ccc(C(=O)Nc2ccc(S(=O)(=O)N3CCCCC3c3cccnc3)cc2)cc1 (stereo unspecified) | 1.71 |
| Cc1ccc(S(=O)(=O)Nc2cnccc2C(=O)Nc2nc(-c3ccccc3F)cs2)cc1 | 9.9 |
| CCOc1ccccc1N(CC(=O)N1CCOCC1)S(=O)(=O)c1ccc(SC)cc1 | 1.45 |
| Cc1cccc(-n2c(C)cc(C=C(C#N)C#N)c2C)c1 | 1.64 |
| Cc1cccc(OCC(=O)Nc2ccc3nc(Nc4cccc(Cl)c4)cc(C)c3c2)c1 | > 30 |
| COc1ccc(OC)c(-c2nnc3ccc(-c4ccc(OC)c(O[C@@H]5CCOC5)c4)nn23)c1 | 5.5 |
| CN1CCN(Cc2ccc(-c3ccc(C(C)(C)C#N)cc3)nc2)CC1 | 24.6 |
| COc1ccc(NC(C)=O)cc1S(=O)(=O)Nc1ccc(Br)cc1 | > 30 |
| O=C(Nc1nc(-c2ccccc2)cs1)c1ccncc1NS(=O)(=O)c1ccccc1Cl | 15 |
| Cc1ccc(/C=C/c2nc3ccccc3n2S(=O)(=O)c2ccc(Br)cc2)cc1 | 28.6 |
| O=C1Nc2ccccc2/C1=C\c1cc(Br)c(O)c(Br)c1 | 26 |

| SMILES | half-life [min] |
| --- | --- |
| Cc1cc(F)ccc1-c1nc(NCCN=C(N)NC#N)nc2c1ccc(=O)n2-c1c(F)cccc1F | 5.23 |
| CC(C)c1ccccc1-c1ncc(F)c(NCc2ccc(-c3ccn[nH]3)cc2)n1 | 2.8 |
| CCCCCn1cc2c(c1-c1ccc(Br)cc1)c(=O)n(C)c(=O)n2C | 6.39 |
| O=C(O)CCNc1cc(N2CCc3ccccc3CC2)nc(-c2ccccn2)n1 | > 30 |
| Cc1cccc(-c2noc([C@@H]3Cc4nc[nH]c4CN3)n2)c1 | > 30 |
| CCOc1ccc(CCNC(=O)c2ccc(C3(C(F)(F)F)N=N3)cc2)cc1OCC | 11 |
| C#CCNC(=O)c1nc(-c2ccc([S+](C)(=O)[O-])cc2)c2cnccn12 | > 30 |
| Cc1nn(CC(=O)NCCCN2CCC(N3CCCCC3)CC2)c(=O)c2cc(-c3ccccc3)nn12 | 13 |
| CC[C@H]1C=CC=CC[C@@H](C)[C@H](O)[C@@](C)(O)C(=O)[C@@H](C)[C@H](O)[C@@H](C)C(=O)[C@@H](C)[C@H](O)[C@@H](C)C=CC(=O)O[C@@H]2[C@@H](C)[C@H](CC1)O[C@]1(CC[C@H](C)[C@H](C[C@@H](C)O)O1)[C@H]2C | > 30 |
| COc1cccc(CNC(=O)c2c(OC)cc(=O)n3c2CCN(C(=O)c2ccc(C)cc2C)CC3)c1 | 5.9 |
| FC(F)(F)c1ccccc1-c1nc(NCc2cccs2)c2ccccc2n1 | 2.5 |
| CC[C@@]1(O)C(=O)OCc2c1cc1n(c2=O)Cc2c-1nc1cc(F)c(C)c3c1c2[C@@H](N)CC3 | > 30 |
| c1ccc(-c2nnc3n2NC(c2ccc4c(c2)OCO4)S3)cc1 (stereo unspecified) | > 30 |
| O=C(NC1CCCc2c1[nH]c1ccc(Cl)cc21)c1ccncc1 (stereo unspecified) | > 30 |
| Cc1ccc(-c2nc(NCC(=O)Nc3cccc(C(=O)O)c3)c3ccccc3n2)cc1 | > 30 |
| CN1CCN(c2ccc(-c3cccc(CN4CCOCC4)c3)cc2NC(=O)c2c[nH]c(=O)cc2C(F)(F)F)CC1 | > 30 |
| Cc1ccc(-c2cc(C(=O)Nc3ccc(S(N)(=O)=O)cc3)c3ccccc3n2)cc1C | > 30 |
| CSc1ccc(-c2cnc(N3CCC(C(N)=O)CC3)s2)cc1 | 1.53 |
| COc1cncc(Nc2ncc(-c3cccc(N(C)C)c3)c3c2OCC3)c1 | 11.7 |
| CCOC(=O)c1ccc(-n2c(C)cc(-c3nnc4n3CCCCC4)c2C)cc1 | 2.7 |
| Cc1cc(C)nc(NS(=O)(=O)c2ccc(NC(=S)NC(=O)COc3ccc(Br)cc3Cl)cc2)n1 | > 30 |
| CNC(=O)c1ccc(-c2cnc3cnc(C(=O)N(C)c4ccc(Cl)cc4)cn23)cc1 | > 30 |
| Cc1ccc(S(=O)(=O)Nc2cnccc2C(=O)Nc2nc(-c3cc4ccccc4o3)cs2)cc1 | 20 |
| CCOc1ccc(CCNC(=O)c2ccnn2Cc2cccc(C)c2)cc1OCC | 1.5 |
| CCN1C(=O)c2ccccc2S(=O)c2ccc(NC(=O)Cc3ccc(OC)cc3)cc21 (stereo unspecified) | 6.1 |
| OCCN1CCN(CCCN2c3ccccc3Sc3ccc(Cl)cc32)CC1 | 4.34 |

| SMILES | half-life [min] |
| --- | --- |
| CCc1ccc(NC(=O)[C@H](Cc2c[nH]c3ccccc23)NC(=O)[C@@H]2Cc3ccccc3CN2)cc1 | 2.32 |
| O=C1Nc2ccccc2/C1=C\c1cc(F)c(O)c(F)c1 | 23 |
| CCCOc1ccc2nc(NC(=O)OC)[nH]c2c1 | > 30 |
| O=C(CCCN1CCC(n2c(=O)[nH]c3ccccc32)CC1)c1ccc(F)cc1 | 10.9 |
| Cc1nsc(N)c1C(=O)N(C)CCOc1ccccc1Cl | 3.7 |
| COC12C(COC(N)=O)C3=C(C(=O)C(C)=C(N)C3=O)N1CC1C2N1C (stereo unspecified) | > 30 |
| Cc1nn(CCc2nc(-c3ccc(OC(F)F)cc3)cs2)c2[nH]c(=O)cc(C(F)(F)F)c12 | 6.9 |
| Cc1ccc2c(c1)c(=O)c1ccccc1n2CCCC(=O)Nc1cc(Cl)ccc1C | 3.79 |
| CC(=O)c1c(C)[nH]c(C(=O)Nc2cccc(S(=O)(=O)N3CCOCC3)c2)c1C | 17 |
| Cc1cnc(-c2ccccc2C2COC2)nc1NCc1ccc(-c2cccnc2)cc1 | 12 |
| CC(=O)N1CCc2cc(S(=O)(=O)NCCC3=CCCCC3)ccc21 | 1.3 |
| O=C(c1ccc2c(c1)ncn2-c1cccc(C(F)(F)F)c1)N1CCCCC1 | 4.4 |
| CCC[C@H](NC(=O)/C(C#N)=C/c1cccc(Br)n1)c1ccccc1 | > 30 |
| COC(=O)c1cccc(NC(=O)c2cnc(-c3ccc(F)cc3)nc2-c2ccncc2)c1 | 9.09 |
| CN(C)c1cccc(-c2nc(N3CCC(C(N)=O)CC3)ncc2F)c1 | 1.45 |
| CCN1CCN(CC(=O)Nc2ccc(-c3cccc4c(=O)cc(N5CCOCC5)oc34)c3sc4ccccc4c23)CC1 | > 30 |
| Cc1ccc(S(=O)(=O)Nc2cnccc2C(=O)Nc2ccc(-n3cncn3)cc2)cc1 | 21 |
| Cc1noc(C)c1C(=O)N1CCC2(CCCN(Cc3ccccc3)C2)CC1 | 7.2 |
| CCn1c(=NC(=O)c2ccc(S(=O)(=O)N3CCCCC3)cc2)sc2cccc(OC)c21 | 9.5 |
| Cc1c(C)n(Cc2ccc(-c3ccccc3C(=O)O)cc2)c2ccc(C(=O)N[C@@H](C)c3ccc([N+](=O)[O-])cc3)cc12 | > 30 |
| Cc1cc2ccccc2n1CC(=O)NC1CCCCC1 | 2.8 |
| COc1cccc(NC(=O)c2cc(-c3ccc(C)c(C)c3)nc3ccccc23)c1 | 12 |
| COc1ccc(-c2csc(N3CCC(C(N)=O)CC3)n2)cc1OC | > 30 |
